Experimental data reported in patent US7173021B2, “Synthesis of temozolomide esters as potent anticancer pro-drugs for topical and transdermal applications in treatments of cancers” (Tianjin North Pharm Sci-Tech Co., Ltd., priority 2004, dated 2007).
≈ marks a conversion by molar mass, not a printed value.

What was measured:
[1] = system: Bel7402 (human hepatocellulor); assay: In vitro tumour cell growth inhibition (MTT), Bel-7402; format: cell-based; conditions: Table 1 experiment, 96 h
Description: (§1) Temozolomide (white powder), temozolomide acid (white powder) and temozolomide-8-carboxylate hexyl (white scale crystal) were made in house. For the estimation of in vitro tumour cell growth inhibition, MV3 (human melanoma), M14 (human melanoma), B16 and B16-BL6 (mouse melanoma), SHG-44, TJ899 and TJ905 (human glioma), MCF-7 (human breast), HCT-8 (human colon), A549 (human non small lung), Bel7402 (human hepatocellulor), and BGC-823 (human stomach) were used. All tumour cells were cultured in RPMI-1640 medium supplemented with 10% fetal bovine serum (FBS) at 37° C. in a humidified 5% CO2 incubator.
(§2) After being harvested from culture flasks, a cell suspension of 1×10^4/ml was made by using 1640 RPMI medium supplemented with 10% fetal bovine serum. 100 μl (contains 1000 tumour cells) of the cell suspension was seeded per well of 96-well flat-bottom Costar culture plates at 37° C. in a humidified 5% CO2 incubator for 24 hrs before introducing drugs. Each tested compounds was made for five different concentrations and 100 μl of the each concentration was introduced into parallel three wells; control wells were added with 100 μl of plain medium alone; fluorouracil (a chemotherapeutic antitumour drug) was used as the positive control. Cells were then incubated for 96 h. Proliferative response and cell death were determined using MTT (3-(4,5-dimethylthiazolyl)-2,5-diphenyl-tetrazolium bromide) assay.
(§3) MTT assay: Following incubation of cells with the tested compounds for 96 h, 100 μl of 0.4 mg/ml MTT in RPMI 1640 was added to each well and the plate was incubated at 37° C. for 4 h. The plate was then centrifuged and followed by removal of medium. 150 μl of DMSO was then added to dissolve formazan crystal. DMSO-added plates were placed on a plate shaker for 5 min and absorbance was measured spectrophotometrically at 540 nm (with reference wavelength at 450 nm) using a Benchmark microtiter plate reader (Bio-Rad 550, Bio-Rad Laboratories, CA, U.S.A.).
(§4) The IC50 was calculated from the curve of the tested compound concentrations against the inhibition rate of the tumour cells. […]

BGC-823 (human stomach) = assay: In vitro tumour cell growth inhibition (MTT), BGC-823; format: cell-based; conditions: Table 1 experiment, 96 h
Description: as §1, §2, §3, §4

MCF-7 (human breast) = assay: In vitro tumour cell growth inhibition (MTT), MCF-7; format: cell-based; conditions: MCF7, Table 1 experiment, 96 h
Description: as §1, §2, §3, §4

B16 (mouse melanoma) = assay: In vitro tumour cell growth inhibition (MTT), B16; format: cell-based; conditions: Mus musculus, Table 2 experiment, 96 h
Description: as §1, §2, §3
(§5) The IC50 was calculated from the curve of the tested compound concentrations against the inhibition rate of the tumour cells. Table 1 summarized the experiment results by using six human cancer cell lines, HCT-8 (colon carcinoma), A549 (non small lung carcinoma), MCF-7 (breast), Bel7402 (hepatocellulor carcinoma), BGC-823 (stomach adenocarcinoma), and MV3 (melanoma). Table 2 summarized the results from the experiment results by using two human melanoma cell lines, MV3 and M14, two mouse melanoma cell lines, B16 and B16-BL6, and three human glioma cell lines, TJ899, SHG-44 and TJ905.

M14 (human melanoma) = assay: In vitro tumour cell growth inhibition (MTT), M14; format: cell-based; conditions: Homo sapiens, Table 2 experiment, 96 h
Description: as §1, §2, §3, §5

[2] = Measured log P, octanol/water; format: physicochemical; conditions: octanol/water system; read-out: measured Log P (mLog P)
Description: Log P values of temozolomide (1) and the temozolomide esters were calculated using TSAR (Oxford Molecular, Oxford, UK), Molecular Modeling Pro (ChemSW, Fairfield, Calif.) and Chem Office 7.0 (CambridgeSoft, Cambridge, UK) programmes. Calculated Log P values were verified for temozolomide and the temozolomide hexyl ester by measuring the octanol/water coefficient (Table 4).

TJ905 (human glioma) = assay: In vitro tumour cell growth inhibition (MTT), TJ905; format: cell-based; conditions: Homo sapiens, Table 2 experiment, 96 h
Description: as §1, §2, §3, §5

B16-BL6 (mouse melanoma) = assay: In vitro tumour cell growth inhibition (MTT), B16-BL6; format: cell-based; conditions: Mus musculus, B16-BL6, Table 2 experiment, 96 h
Description: as §1, §2, §3, §5

[3] = Solubility in 10% v/v propylene glycol; format: physicochemical; conditions: 10% v/v propylene glycol aqueous solution, aqueous with cosolvent or surfactant or cyclodextrin, thermodynamic from solid, ambient conditions, stirred 5 hours, read-out: Solubility, Concentration
Description: The potential of temozolomide esters used as topical and transdermal prodrugs is first proven through studies of their solubility. That is a decreased trend of solubility in an aqueous solution with increase of the length of the ester hydrocarbon alkyl chain of the temozolomide esters. It is clear the solubility constantly decreases from the methyl ester to the octyl ester, while temozolomide itself is 3.0 mg/ml similar to that of the methyl ester. […] Similarly to the esters, the solubility of the temozolomide amide products in the aqueous solution is considerably lower than that of temozolomide.
The solubility of temozolomide and the temozolomide esters was determined in 10% v/v propylene glycol by stirring an excess of the solid products at room temperature for 5 hours. The mixtures were then filtered, diluted with sample solvent and analysed using HPLC.

MV3 (human melanoma) = assay: In vitro tumour cell growth inhibition (MTT), MV3; format: cell-based; conditions: Homo sapiens, 96 h
Description: as §1, §2, §3, §5

HCT-8 (human colon) = assay: In vitro tumour cell growth inhibition (MTT), HCT-8; format: cell-based; conditions: Table 1 experiment, 96 h
Description: as §1, §2, §3, §4

IC50 [1]: 27.2 mg/L (≈ 97.4 µM)
IC50 (BGC-823 (human stomach)): > 19.5 mg/L
IC50 (MCF-7 (human breast)): 20 mg/L (≈ 71.6 µM)
IC50 (B16 (mouse melanoma)): 28.3 mg/L (≈ 101 µM)
IC50 (M14 (human melanoma)): > 100 mg/L
logP [2]: 2.56
IC50 (TJ905 (human glioma)): > 100 mg/L
IC50 (B16-BL6 (mouse melanoma)): > 100 mg/L
solubility at 5 h [3]: 0.4 mg/mL (≈ 1430 µM)
IC50 (MV3 (human melanoma); Table 1 experiment): 8.84 mg/L (≈ 31.6 µM)
IC50 (MV3 (human melanoma); Table 2 experiment (separate)): 25 mg/L (≈ 89.5 µM)
IC50 (HCT-8 (human colon)): 28.6 mg/L (≈ 103 µM)
SMILES: CCCCCCOC(=O)c1ncn2c(=O)n(C)nnc12 [temozolomide hexyl ester, Hexyl 3,4-dihydro-3-methyl-4-oxoimidazo[5,1-d]-1,2,3,5-tetrazine-8-carboxylate]
